Assay results from ChEMBL document CHEMBL1137962, “New heteroarylbenzenesulphonamides as matrix metalloproteinase inhibitors” (Bioorg Med Chem Lett, 2004).

Key:
[1] = molecular target: Matrix metalloproteinase-9 (Homo sapiens, UniProt P14780); experiment: Inhibition of matrix metalloprotease-9
[2] = molecular target: 72 kDa type IV collagenase (Homo sapiens, UniProt P08253); experiment: Inhibition of matrix metalloprotease-2
Chain of 72 kDa type IV collagenase (P08253 whole entry): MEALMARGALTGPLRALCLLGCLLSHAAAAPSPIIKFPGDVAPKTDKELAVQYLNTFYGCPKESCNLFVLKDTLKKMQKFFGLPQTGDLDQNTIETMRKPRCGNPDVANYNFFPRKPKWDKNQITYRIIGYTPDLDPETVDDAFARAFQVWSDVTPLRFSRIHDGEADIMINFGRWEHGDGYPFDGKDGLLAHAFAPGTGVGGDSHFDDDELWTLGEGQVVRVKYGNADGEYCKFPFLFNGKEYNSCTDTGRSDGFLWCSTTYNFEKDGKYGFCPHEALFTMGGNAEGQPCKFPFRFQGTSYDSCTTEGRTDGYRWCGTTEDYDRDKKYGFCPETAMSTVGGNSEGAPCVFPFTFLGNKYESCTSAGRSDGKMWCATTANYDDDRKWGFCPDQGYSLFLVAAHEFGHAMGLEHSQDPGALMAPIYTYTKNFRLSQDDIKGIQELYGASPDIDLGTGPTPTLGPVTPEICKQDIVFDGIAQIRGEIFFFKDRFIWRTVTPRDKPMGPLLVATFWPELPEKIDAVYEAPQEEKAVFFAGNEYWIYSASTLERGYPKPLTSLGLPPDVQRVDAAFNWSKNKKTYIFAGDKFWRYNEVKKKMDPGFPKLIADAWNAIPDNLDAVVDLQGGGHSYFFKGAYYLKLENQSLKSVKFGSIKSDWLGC

Chain of Matrix metalloproteinase-9 (P14780 whole entry): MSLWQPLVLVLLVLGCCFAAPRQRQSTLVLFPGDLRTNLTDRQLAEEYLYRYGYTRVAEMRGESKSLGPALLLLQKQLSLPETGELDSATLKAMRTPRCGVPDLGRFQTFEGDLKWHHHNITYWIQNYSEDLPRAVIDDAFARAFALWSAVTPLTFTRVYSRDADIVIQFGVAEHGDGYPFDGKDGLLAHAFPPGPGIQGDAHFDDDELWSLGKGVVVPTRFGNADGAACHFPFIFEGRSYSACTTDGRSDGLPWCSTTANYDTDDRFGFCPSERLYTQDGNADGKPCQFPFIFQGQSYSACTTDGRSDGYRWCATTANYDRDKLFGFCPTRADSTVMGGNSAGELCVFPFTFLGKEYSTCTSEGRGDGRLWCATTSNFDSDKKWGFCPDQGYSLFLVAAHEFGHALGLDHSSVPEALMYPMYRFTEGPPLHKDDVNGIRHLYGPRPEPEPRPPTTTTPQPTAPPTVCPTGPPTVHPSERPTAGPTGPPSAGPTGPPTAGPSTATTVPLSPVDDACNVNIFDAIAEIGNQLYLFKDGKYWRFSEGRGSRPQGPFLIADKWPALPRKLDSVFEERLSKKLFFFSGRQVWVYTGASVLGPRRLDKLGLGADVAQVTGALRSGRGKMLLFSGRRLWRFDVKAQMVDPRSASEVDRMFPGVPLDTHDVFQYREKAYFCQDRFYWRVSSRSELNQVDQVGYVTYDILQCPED

COc1ccc(-c2cnc(-c3ccc(S(=O)(=O)NC(C(=O)NO)C(C)C)cc3)s2)cc1 (centres undefined)
IC50 [1]: 900 nM | IC50 [2]: 400 nM

COc1ccc(-c2cnc(-c3ccc(S(=O)(=O)NC(C(=O)O)C(C)C)cc3)o2)cc1 (centres undefined)
IC50 [1]: 1000 nM | IC50 [2]: 1000 nM

COc1ccc(-c2cnc(-c3ccc(S(=O)(=O)NC(C(=O)NO)C(C)C)cc3)o2)cc1 (centres undefined)
IC50 [1]: 1000 nM | IC50 [2]: 1000 nM

COc1ccc(-c2cnc(-c3ccc(S(=O)(=O)NC(C(=O)CCC(=O)O)C(C)C)cc3)o2)cc1 (centres undefined)
IC50 [1]: 10000 nM | IC50 [2]: 10000 nM

COc1ccc(-c2cnc(-c3ccc(S(=O)(=O)NC(CCC(=O)O)C(=O)O)cc3)s2)cc1 (centres undefined)
IC50 [1]: 50 nM | IC50 [2]: 50 nM

COc1ccc(-c2cnc(-c3ccc(S(=O)(=O)NC(C(=O)O)C(C)C)cc3)s2)cc1 (centres undefined)
IC50 [1]: 700 nM | IC50 [2]: 200 nM

CNC(=O)[C@@H](CC(=O)[C@H](CC(C)C)[C@H](CSc1ccccc1)C(=O)NO)Cc1ccccc1
IC50 [1]: 200 nM | IC50 [2]: 200 nM
